Measured values as given in ChEMBL document CHEMBL1201862, “PubChem BioAssay data set” (2004).
The source made the active and inactive calls.

What was measured:
[1] = Luminescence Cell-Based Dose Confirmation HTS to Identify Activators of 5'UTR Stem-Loop Driven Alpha-Synuclein mRNA Translation in H4 Neuroglioblastoma Cells. [Related pubchem assays: 1829 (Project Summary), 1814 (Primary HTS)]; type: functional
[2] = Luminescence Cell-Based Dose Response HTS to Identify Activators of Luciferase Translation or Activity in H4 […] Cells. [Related pubchem assays: 1829 (Project Summary), 1814 (Primary HTS)]; type: functional
H4 = assay: Luminescence Cell-Based Dose Response HTS to Identify Activators of 5'UTR Stem-Loop Driven Prion Protein mRNA Translation in H4 Neuroglioblastoma Cells. [Related pubchem assays: 1829 (Project Summary), 1814 (Primary HTS)]; type: functional; details: Homo sapiens
Insulin-degrading enzyme [3] = biological target: T1, Insulin-degrading enzyme (Homo sapiens, UniProt P14735); assay: recombinant IDE activation, cell-free – biochemical, fluorescence polarization, counter-screen for IDE activator project, dose response (AID 588681)
T1 sequence (P14735 whole entry): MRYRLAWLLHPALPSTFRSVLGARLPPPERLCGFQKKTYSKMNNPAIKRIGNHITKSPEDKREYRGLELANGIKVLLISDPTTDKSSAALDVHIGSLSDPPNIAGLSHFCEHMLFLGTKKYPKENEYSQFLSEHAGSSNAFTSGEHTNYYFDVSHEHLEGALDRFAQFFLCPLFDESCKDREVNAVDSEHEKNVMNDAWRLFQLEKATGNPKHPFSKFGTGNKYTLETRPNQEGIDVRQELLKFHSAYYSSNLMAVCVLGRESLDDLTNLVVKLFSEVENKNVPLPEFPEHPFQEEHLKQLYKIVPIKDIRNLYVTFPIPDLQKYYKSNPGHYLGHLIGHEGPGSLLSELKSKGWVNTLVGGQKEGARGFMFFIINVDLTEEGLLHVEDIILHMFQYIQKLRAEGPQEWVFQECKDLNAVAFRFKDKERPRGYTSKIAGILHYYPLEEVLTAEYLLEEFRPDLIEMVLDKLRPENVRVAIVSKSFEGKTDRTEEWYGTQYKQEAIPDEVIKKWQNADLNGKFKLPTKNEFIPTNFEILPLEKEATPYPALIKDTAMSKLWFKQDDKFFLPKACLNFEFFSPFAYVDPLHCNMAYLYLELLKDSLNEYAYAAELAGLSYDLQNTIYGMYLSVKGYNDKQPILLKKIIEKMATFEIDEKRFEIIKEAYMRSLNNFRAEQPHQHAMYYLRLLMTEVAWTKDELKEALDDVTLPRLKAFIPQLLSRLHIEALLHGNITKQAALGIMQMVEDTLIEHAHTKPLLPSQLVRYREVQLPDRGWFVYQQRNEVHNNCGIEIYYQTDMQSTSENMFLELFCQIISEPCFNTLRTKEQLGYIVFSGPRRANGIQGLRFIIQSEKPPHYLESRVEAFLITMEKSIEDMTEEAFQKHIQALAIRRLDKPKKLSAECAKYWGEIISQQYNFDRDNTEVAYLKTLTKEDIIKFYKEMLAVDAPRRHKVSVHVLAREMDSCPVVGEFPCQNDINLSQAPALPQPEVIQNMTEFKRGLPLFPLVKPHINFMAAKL

Insulin-degrading enzyme [4] = biological target: T1, Insulin-degrading enzyme; assay: cellular IDE activation of Abeta substrate cleavage – fluorescence polarization, HEK cells, dose response (AID 588439); type: functional, cell-based
HEK293 [5] = assay: membrane integrity loss in HEK cells – cell-based, fluorescence, cytotoxicity control for IDE activator project, dose response (AID 588440); type: functional; details: Homo sapiens;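 note: cytotoxicity by LDH release measuring loss of membrane integrity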
HEK293 [6] = assay: optical interference in Abeta FP readout, dose response, artefact control for IDE activator project, biochemical, fluorescence polarization (AID 588442); type: functional, cell-based; details: Homo sapiens
CHO = CHO cell viability loss, potency – luminescence, cytotoxicity control for TLR9-MyD88 binding inhibitor project, dose response (AID 588339); type: functional, cell-based, hamster; details: Cricetulus griseus;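 note: CHO cells stably coexpressing TLR9 and MyD88 fusions from primary screen; compound exposure lasted 48 hours before viability readout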
Beta Lactamase = Beta Lactamase (Pseudomonas aeruginosa, UniProt Q932Y6); assay: BLA reporter interference, concentration series – BLA reporter cells, FRET fluorescence, artefact control for TLR9-MyD88 binding inhibitor project, dose response (AID 588341); type: cell-based;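 note: cell based assay in CHO-K1 cells stably expressing beta-lactamase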
[7] = viability loss in THP-1 monocytes – THP-1 cells, cytotoxicity control for Vif-APOBEC3G degradation inhibitor project, dose response (AID 1117359); type: functional; details: THP-1
[8] = biological target: T2, Voltage-gated N-type calcium channel alpha-1B subunit/Amyloid beta A4 precursor protein-binding family A member 1 (Homo sapiens, UniProt Q00975+Q02410); type: protein assay
[9] = biological target: T2, Voltage-gated N-type calcium channel alpha-1B subunit/Amyloid beta A4 precursor protein-binding family A member 1; type: protein assay; remark: listed apart in the source
[10] = biological target: Induced myeloid leukemia cell differentiation protein Mcl-1 (Homo sapiens, UniProt Q07820); type: functional
[11] = biological target: T3, Short transient receptor potential channel 4 (Mus musculus, UniProt Q9QUQ5); assay: SAR Analysis for the identification of selective inhibits of the transient receptor potential cation channel C4 (TRPC4): Automated Electrophysiology_2. [Related pubchem assays (depositor defined):AID2256]; type: functional
T3 sequence (Q9QUQ5 whole entry): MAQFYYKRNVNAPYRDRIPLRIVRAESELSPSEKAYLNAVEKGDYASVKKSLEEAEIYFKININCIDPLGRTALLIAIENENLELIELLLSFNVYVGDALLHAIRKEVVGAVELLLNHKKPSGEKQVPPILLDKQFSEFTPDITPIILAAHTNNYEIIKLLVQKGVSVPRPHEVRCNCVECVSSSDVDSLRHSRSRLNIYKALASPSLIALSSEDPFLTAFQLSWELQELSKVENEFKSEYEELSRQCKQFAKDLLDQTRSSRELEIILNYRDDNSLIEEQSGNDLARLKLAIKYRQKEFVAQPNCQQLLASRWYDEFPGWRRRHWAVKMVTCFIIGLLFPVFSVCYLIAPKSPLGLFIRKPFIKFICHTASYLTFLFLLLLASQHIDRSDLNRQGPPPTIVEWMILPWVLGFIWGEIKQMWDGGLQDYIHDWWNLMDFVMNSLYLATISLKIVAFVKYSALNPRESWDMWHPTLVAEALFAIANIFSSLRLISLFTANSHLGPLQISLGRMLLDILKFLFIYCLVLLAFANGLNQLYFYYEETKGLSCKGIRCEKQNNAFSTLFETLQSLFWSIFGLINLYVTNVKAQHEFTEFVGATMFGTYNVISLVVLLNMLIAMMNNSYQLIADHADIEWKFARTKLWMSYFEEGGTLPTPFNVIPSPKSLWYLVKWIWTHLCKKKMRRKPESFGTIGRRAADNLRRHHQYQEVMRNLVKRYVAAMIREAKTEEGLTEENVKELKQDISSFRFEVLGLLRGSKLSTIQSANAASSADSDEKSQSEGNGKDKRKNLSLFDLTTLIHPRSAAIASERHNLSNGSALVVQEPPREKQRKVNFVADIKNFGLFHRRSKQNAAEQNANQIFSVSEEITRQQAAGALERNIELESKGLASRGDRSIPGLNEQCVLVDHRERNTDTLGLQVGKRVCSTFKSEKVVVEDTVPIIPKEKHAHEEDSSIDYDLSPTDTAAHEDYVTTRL

[12] = biological target: Short transient receptor potential channel 6 (Mus musculus, UniProt Q61143); assay: mouse TRPC6 channel blockers, concentration series – HEK293 cells, membrane potential dye, IC50, selectivity assay for selective TRPC4 inhibitor project, dose response (AID 492987); type: functional, cell-based
[13] = biological target: T3, Short transient receptor potential channel 4; assay: potency of mouse TRPC4 calcium flux blockers – cell-based, HEK293 TRPC4/mu-opioid, DAMGO stimulus, Fluo-4, dose response (AID 492994); type: functional

Sequence of Beta Lactamase (Q932Y6 whole entry): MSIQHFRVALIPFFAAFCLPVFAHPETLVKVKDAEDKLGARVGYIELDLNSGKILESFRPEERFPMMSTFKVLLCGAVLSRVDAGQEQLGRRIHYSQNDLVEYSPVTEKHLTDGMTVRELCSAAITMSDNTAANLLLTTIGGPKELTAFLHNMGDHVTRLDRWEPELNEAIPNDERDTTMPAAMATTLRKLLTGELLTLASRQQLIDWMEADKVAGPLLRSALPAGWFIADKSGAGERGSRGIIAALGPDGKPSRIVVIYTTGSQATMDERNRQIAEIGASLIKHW
T2 sequence (Q00975 whole entry): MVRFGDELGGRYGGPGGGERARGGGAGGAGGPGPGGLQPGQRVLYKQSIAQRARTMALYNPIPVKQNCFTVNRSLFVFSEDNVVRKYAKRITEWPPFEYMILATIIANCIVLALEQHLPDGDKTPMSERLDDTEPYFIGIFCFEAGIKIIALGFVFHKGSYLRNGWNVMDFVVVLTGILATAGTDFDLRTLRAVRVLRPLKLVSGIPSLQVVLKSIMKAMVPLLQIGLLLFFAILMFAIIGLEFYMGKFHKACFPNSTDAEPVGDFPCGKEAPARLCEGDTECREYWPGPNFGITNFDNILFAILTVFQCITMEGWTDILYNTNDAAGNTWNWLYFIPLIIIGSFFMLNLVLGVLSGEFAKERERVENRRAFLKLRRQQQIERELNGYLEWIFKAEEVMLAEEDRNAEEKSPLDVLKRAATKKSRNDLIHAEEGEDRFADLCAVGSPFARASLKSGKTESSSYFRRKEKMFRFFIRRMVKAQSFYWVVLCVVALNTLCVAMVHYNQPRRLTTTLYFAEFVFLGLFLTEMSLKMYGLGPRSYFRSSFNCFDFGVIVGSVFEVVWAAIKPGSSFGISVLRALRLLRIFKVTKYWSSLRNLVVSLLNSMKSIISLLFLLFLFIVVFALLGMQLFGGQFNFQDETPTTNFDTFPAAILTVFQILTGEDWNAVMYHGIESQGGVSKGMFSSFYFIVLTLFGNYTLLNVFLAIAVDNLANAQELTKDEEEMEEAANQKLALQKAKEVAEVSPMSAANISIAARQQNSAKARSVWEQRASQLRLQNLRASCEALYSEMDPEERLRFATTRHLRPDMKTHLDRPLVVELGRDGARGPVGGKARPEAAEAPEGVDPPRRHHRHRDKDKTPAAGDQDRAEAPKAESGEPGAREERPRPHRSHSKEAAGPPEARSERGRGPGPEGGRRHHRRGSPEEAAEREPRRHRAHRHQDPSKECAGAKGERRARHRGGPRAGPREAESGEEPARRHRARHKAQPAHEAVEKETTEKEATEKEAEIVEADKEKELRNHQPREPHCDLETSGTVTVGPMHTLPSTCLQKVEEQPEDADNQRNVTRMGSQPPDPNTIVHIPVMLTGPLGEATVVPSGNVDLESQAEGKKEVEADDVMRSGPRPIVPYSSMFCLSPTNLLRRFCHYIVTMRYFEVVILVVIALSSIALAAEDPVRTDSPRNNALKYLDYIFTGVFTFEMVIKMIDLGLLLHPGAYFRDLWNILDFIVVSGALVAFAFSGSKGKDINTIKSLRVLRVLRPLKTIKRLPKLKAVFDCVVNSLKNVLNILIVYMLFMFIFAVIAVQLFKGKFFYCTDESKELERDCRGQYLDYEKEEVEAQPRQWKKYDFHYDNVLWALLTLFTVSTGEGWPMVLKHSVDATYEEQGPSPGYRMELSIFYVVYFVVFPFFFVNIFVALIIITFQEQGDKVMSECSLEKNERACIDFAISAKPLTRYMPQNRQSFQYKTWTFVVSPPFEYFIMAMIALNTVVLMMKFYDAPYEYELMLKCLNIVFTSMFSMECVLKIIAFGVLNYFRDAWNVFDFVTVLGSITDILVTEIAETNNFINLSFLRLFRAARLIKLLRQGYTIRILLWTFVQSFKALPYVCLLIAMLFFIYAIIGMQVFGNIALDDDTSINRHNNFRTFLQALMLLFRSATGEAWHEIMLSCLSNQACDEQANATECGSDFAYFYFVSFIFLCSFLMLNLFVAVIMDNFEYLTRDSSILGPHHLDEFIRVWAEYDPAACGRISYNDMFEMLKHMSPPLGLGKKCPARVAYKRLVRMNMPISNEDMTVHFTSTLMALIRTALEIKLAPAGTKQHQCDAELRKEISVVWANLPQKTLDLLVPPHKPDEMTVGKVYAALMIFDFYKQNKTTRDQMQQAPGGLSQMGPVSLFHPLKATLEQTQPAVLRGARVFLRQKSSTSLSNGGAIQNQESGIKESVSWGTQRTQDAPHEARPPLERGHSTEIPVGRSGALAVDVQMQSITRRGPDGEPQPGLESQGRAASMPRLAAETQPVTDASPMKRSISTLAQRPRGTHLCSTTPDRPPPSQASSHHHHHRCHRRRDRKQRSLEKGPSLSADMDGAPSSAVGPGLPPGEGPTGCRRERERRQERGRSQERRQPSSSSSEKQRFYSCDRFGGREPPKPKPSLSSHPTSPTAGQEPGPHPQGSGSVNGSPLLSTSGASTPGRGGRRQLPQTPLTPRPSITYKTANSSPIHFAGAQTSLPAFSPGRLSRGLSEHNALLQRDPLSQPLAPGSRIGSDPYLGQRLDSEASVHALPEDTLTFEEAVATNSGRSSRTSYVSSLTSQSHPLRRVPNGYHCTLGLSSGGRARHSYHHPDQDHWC
T2 sequence (Q02410 whole entry): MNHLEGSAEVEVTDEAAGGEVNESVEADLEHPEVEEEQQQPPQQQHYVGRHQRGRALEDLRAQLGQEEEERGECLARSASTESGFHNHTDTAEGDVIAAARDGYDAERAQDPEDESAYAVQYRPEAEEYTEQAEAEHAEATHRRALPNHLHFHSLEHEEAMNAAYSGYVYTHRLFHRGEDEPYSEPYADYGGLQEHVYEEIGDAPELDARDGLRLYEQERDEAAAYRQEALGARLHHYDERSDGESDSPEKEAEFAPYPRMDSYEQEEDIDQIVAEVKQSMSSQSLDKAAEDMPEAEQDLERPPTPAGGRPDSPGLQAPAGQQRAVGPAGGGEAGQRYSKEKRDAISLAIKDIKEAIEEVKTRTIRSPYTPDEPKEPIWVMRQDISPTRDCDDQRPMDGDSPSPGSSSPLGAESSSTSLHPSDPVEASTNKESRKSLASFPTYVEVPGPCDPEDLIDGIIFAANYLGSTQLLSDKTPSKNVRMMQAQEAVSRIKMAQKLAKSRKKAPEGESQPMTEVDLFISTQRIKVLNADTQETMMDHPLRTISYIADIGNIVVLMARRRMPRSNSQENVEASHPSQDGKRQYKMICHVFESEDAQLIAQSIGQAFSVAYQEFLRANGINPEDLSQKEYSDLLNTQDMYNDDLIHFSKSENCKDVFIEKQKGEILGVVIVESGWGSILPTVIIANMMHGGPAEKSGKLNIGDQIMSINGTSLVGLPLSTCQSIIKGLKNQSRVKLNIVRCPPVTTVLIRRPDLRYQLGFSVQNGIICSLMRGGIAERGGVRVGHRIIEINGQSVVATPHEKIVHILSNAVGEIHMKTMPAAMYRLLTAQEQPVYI
Sequence of Short transient receptor potential channel 6 (Q61143 whole entry): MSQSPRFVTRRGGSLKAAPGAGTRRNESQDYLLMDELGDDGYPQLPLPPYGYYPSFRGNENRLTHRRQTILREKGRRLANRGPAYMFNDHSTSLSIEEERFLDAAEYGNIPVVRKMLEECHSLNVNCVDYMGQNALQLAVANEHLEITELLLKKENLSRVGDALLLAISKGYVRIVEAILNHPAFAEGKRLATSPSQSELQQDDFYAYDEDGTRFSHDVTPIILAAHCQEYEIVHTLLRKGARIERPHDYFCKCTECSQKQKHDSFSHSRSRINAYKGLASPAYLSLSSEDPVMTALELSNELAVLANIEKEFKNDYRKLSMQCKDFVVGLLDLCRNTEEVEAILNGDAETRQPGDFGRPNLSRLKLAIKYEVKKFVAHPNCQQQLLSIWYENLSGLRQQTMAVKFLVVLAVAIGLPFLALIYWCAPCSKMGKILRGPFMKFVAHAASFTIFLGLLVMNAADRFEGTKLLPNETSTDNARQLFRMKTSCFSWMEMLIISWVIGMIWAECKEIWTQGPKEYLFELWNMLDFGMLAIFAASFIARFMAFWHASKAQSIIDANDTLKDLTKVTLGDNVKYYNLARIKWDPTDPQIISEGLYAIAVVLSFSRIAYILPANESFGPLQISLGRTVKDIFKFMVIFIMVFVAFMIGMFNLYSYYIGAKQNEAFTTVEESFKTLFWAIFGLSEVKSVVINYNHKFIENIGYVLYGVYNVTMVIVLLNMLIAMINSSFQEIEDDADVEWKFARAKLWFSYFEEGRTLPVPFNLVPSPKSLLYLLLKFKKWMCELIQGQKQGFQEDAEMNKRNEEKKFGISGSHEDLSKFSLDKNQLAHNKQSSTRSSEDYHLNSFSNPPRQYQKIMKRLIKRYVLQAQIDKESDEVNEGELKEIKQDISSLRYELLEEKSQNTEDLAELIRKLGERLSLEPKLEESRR
Sequence of Induced myeloid leukemia cell differentiation protein Mcl-1 (Q07820 whole entry): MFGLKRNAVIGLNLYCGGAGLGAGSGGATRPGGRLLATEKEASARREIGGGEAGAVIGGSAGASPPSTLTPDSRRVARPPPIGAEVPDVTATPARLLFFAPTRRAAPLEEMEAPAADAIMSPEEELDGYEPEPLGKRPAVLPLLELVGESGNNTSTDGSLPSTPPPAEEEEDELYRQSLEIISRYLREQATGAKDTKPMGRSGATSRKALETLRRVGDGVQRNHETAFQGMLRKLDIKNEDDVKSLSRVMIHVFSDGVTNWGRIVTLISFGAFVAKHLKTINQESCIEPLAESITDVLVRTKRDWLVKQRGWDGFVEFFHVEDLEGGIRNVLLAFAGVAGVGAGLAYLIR

Cc1ccc(NC(=O)C2C3C=CC4(CN(Cc5cccnc5)C(=O)C24)O3)cc1 (stereo not drawn)
EC50 [1]: > 120 µM (not active) | EC50 [2]: 11.9 µM (active) | EC50 (H4): 14 µM (active) | EC50 (Insulin-degrading enzyme [3]): > 54.7 µM (inactive) | EC50 (Insulin-degrading enzyme [4]): > 54.7 µM (inactive) | IC50 (HEK293 [5]): > 89.2 µM (inactive) | EC50 (HEK293 [6]): > 55.9 µM (inactive)

CC[C@H](C)/C=C(C)/C=C/C1=CC2=CC(=O)[C@]3(C)OC(=O)[C@@H](C(C)=O)[C@@H]3C2=CO1
IC50 (CHO): > 49.7 µM (inactive) | IC50 (Beta Lactamase): 8.86 µM (active) | CC50 [7]: > 40 µM (active)

Cc1cc2nc(/C=C/c3nc4cc(C)c(C)cc4[nH]3)[nH]c2cc1C
IC50 [8]: 18.5 µM (active) | IC50 [9]: > 50 µM (inactive) | IC50 [10]: 3.67 µM (active) | IC50 (CHO): > 49.7 µM (inactive) | IC50 (Beta Lactamase): 20.9 µM (inactive)

Cc1ccc2nc(N3CCCCCC3)cc(C)c2c1
IC50 [11]: 900 nM (active) | IC50 [12]: 12.8 µM (active) | IC50 [13]: 1.3 µM (active)
